Laboratory results reported in patent US4064351A, “9-OXO-15 .xi.-HYDROXY-20-ALKYLIDENEPROST-13(TRANS)-ENOIC ACID DERIVATIVES” (Sankyo Company Limited, priority 1974, dated 1977).

Legend:
[1] = tested on: air-way resistance in guinea pigs; assay: Bronchodilating activity: inhibition of histamine-induced increase in air-way resistance (variant Konzett-Rossler method); type: in vivo, guinea pig; settings: Cavia porcellus; intravenous (method; head prints i.r.); histamine 2 - 3 μg/kg i.v.; parentheses = 95% confidence limit; read-out: 50% Inhibition Dose (ID50) of increase of air-way resistance in guinea pigs
Protocol: The test compounds were administered through intravenous injection to a guinea pig (body weight: 400 - 600 g) anesthetized by administration of sodium pentobarbital, and 2 - 3 μg/kg of histamine was administered through intravenous injection. Inhibitory ratio of increase in air-way resistance was determined by the variant method of Konzett-Rossler method [Archiv fur Experimentelle Pathologie und Pharmakologie, vol. 195, 71 (1940)].

[2] = tested on: gastric secretion (stomach of a male rat); assay: Inhibition of gastric secretion (tetragastrin-stimulated, perfused stomach of anesthetized rat; dose raising perfusate pH by 1.0); type: in vivo, Donryu strain); settings: intravenous administration for 30 minutes; urethane-anesthetized rat; tetragastrine 10 μg/kg/hr
Protocol: The method employed was essentially same as described by M. N. Ghosh and H. O. Schild in British Journal of Pharmacology and Chemotherapy, vol. 13, 54-61 (1958). Through the stomach of a male rat (Donryu strain) anesthetized by administration of urethane was perfused a physiological saline solution containing a small amount of sodium hydroxide at a rate of 1 ml/min. Then 10 μg/kg/hr of a gastric secretion stimulating agent, tetragastrine, was continuously injected into the vein of said rat until pH of the outflowing perfusate reached approximately 3 and said value remained. Thereupon, a certain amount of the test compounds was administered at a certain rate into the vein for 30 minutes, and pH of the outflowing perfusate was measured. The measurement was repeated with variation of the administering amount.

[3] = tested on: bronchodilating activity in presence of a β-adrenergic blocking agent; assay: Inhibition of the bronchodilating activity by a β-adrenergic blocking agent

SMILES | ED50 [1] | Dose needed to increase the pH of the outflowing perfusate by 1.0 [2] | inhibition of bronchodilating activity by a β-adrenergic blocking agent (in words) [3]
CCCCC[C@H](O)/C=C/[C@H]1[C@H](O)CC(=O)[C@@H]1CCCCCCC(=O)O [PGE1, prostaglandin E1] | 0.14 µg/kg | 0.086 mg/kg/hr | 
CC(C)=CCCC(C)CC(O)/C=C/C1C(O)CC(=O)C1CCCCCCC(=O)O (stereo not drawn) [Compound A, 9-oxo-11α,15α-dihydroxy-17β-methyl-20-isopropylideneprost-13(trans)-enoic acid] |  | 0.074 mg/kg/hr | 
CC(C)NCC(O)c1ccc(O)c(O)c1 (stereo not shown) [Isoproterenol] |  |  | inhibits
CCCCC[C@H](O)/C=C/[C@H]1[C@H](O)CC(=O)[C@@H]1C/C=C\CCCC(=O)O [PGE2] | 0.21 µg/kg |  | 
CC(C)=CCCC(C)C[C@H](O)/C=C/[C@H]1[C@H](O)CC(=O)[C@@H]1C/C=C\CCCC(=O)O (relative stereo) [Compound B, 9-oxo-11α, 15α-dihydroxy-17β-methyl-20-isopropylideneprost-5-(cis), 13(trans)-dienoic acid] |  | 0.070 mg/kg/hr | 
CC(C)(C)NCC(O)c1ccc(O)c(CO)c1 (stereo not shown) [Salbutanol] |  |  | inhibits
